“Also recorded” adds a separate entry of the source. Read-outs that look alike come from different tables or passages of the source.
Assays:
[1] = test system: adults with moderate-to-severe AD; experiment: 1-year placebo-controlled trial of dupilumab + TCS: subgroup analysis by CsA eligibility / CsA history; format: in vivo, human; conditions: for proportion of patients achieving a 75% improvement in EASI / proportion of patients achieving a ≥4-point improvement in peak pruritus numerical rating scale / Patients achieving EASI-75, n (%) / Patients achieving a peak pruritus NRS score improvement ≥4 points from baseline, n/N1 (%): Week 52; for Patients achieving a peak pruritus NRS score improvement ≥4 points from baseline, n/N1 (%): baseline NRS ≥4
Procedure: Patients were randomized 3:1:3 (dupilumab 300 mg weekly [qw], every two weeks [q2w], or placebo). Patients received concomitant low and/or medium potency TCS, which could be tapered and discontinued based on clinical response. Topical calcineurin inhibitors could be used in areas considered inadvisable for TCS.
In further analysis, the efficacy and safety of dupilumab vs placebo (PBO) at 52 weeks was compared in two patient (pt) subsets of the population: pts who were earlier treated with CsA but responded inadequately or were intolerant to CsA (subset A; n=114) and the remaining study population (subset B; n=509). Subset A pts had, on average, more severe disease than subset B pts, as assessed by Eczema Area and Severity Index (EASI) (mean baseline±SD EASI score 37.0±12.70 vs 31.6±12.77; nominal p<0.0001 [post-hoc analysis]).

[2] = test system: patients with moderate-to-severe AD; experiment: Pooled subgroup analysis of two 16-week phase 3 dupilumab monotherapy trials by CsA eligibility / CsA history; format: in vivo, human; conditions: for Patients achieving EASI 75, n (%) / Patients achieving IGA 0-1, n (%) / bacterial conjunctivitis rate / conjunctivitis rate: 16 weeks; for Patients achieving a ≥4-point improvement in peak pruritus NRS, n/N1 (%): baseline NRS ≥4
Procedure: Pts (N=1379) with moderate-to-severe AD whose disease was not adequately controlled by topical medications or for whom topical treatment is medically inadvisable were randomized to receive subcutaneous injections of placebo (PBO) or dupilumab 300 mg every 2 weeks (q2w) or weekly (qw) for 16 weeks.
Subset A pts had, on average, more severe disease than subset B pts, as assessed by Eczema Area and Severity Index (EASI; mean baseline±SD EASI score 37.2±14.69 vs 32.0±13.29; nominal p<0.0001).

[3] = Phase 2a pediatric study: pharmacokinetic profile of dupilumab; format: in vivo, human; conditions: pediatric patients with AD, compared with adults
Procedure: The study consisted of a screening period (day −35 to day −1), a baseline visit, Part A (including a single-dose treatment followed by an 8-week semi-dense PK sampling period), and Part B (including a 4-week repeat-dose treatment period [4 weekly doses] followed by an 8-week follow-up period).
Safety and tolerability was assessed by vital signs, physical examinations, clinical laboratory tests, and clinical evaluations. Patients were asked to monitor all adverse events (AEs) experienced from the time of informed consent/assent until their last study visit. Serum samples were collected for assay of dupilumab levels, and PK parameters were calculated using the dupilumab concentration data. Serum samples were collected for assay of ADA, and exploratory analyses. Efficacy was assessed during the study at specified clinic visits using the Pruritus NRS, SCORAD, and EASI that measure the extent and severity of AD, and the IGA that rates the overall severity of AD.

[4] = Functional dupilumab concentrations in serum, 52-week trial with TCS; format: in vivo, human; conditions: Week 16
Procedure: The clinical trial was a 52-week randomized, multicenter, double-blind, placebo-controlled trial of subcutaneous dupilumab with concomitant topical corticosteroids (TCS) in 740 adult patients (NCT02260986) randomized 3:1:3 to placebo, dupilumab 300 mg every 2 weeks (q2w) and dupilumab 300 mg every week (qw); patients randomized to dupilumab received a loading dose of 600 mg. An open-label extension study of dupilumab 300 mg qw (NCT01949311) is ongoing in patients who participated in prior studies and results from 1076 patients treated for up to 68 weeks are also reported. This Example describes functional dupilumab concentrations measured in serum from blood samples at various time-points and analyzed using descriptive statistics.

CYP3A = experiment: Effect of dupilumab on PK of CYP substrate cocktail: midazolam; conditions: 600 mg loading dose, then 300 mg weekly
Procedure: (§1) Subcutaneous dupilumab was administered as a 600 mg loading dose on Day 8, followed by a weekly dose of 300 mg from Day 15 to Day 50. PK parameters included Geometric Mean Ratios (GMR) of AUClast (area under the plasma concentration-time curve from time zero to the time of the last quantifiable concentration) and Cmax (maximum observed plasma concentration) measured at Day 1 and Day 36, while efficacy assessments included changes in Eczema Area and Severity Index (EASI) scores (scale 0-72).

[5] = test system: adults with moderate-to-severe AD; conditions: for decrease in mean EASI (SD) score: 600 mg on Day 8, then 300 mg weekly
Procedure: as §1

[6] = CSA-eligible subset, Dupilumab 300 mg Q2W
[7] = CSA-eligible subset, Dupilumab 300 mg QW
[8] = CSA-ineligible subset, Dupilumab 300 mg Q2W
[9] = CSA-ineligible subset, Dupilumab 300 mg QW

dupilumab: fully human anti-IL-4R antibody; heavy chain SEQ ID NO: 9, light chain SEQ ID NO: 10
treatment-emergent adverse event (TEAE) rate ([1]; CSA-eligible, dupilumab q2w): 87.2%
treatment-emergent adverse event (TEAE) rate ([1]; CSA-eligible, dupilumab qw): 81.7%
treatment-emergent adverse event (TEAE) rate ([1]; CSA-ineligible, dupilumab q2w): 91.7%
treatment-emergent adverse event (TEAE) rate ([1]; CSA-ineligible, dupilumab qw): 88.5%
proportion of patients achieving a 75% improvement in EASI ([1]; CsA-eligible, dupilumab 300 mg q2w + TCS): 69.1%
proportion of patients achieving a 75% improvement in EASI ([1]; CsA-eligible, dupilumab 300 mg qw + TCS): 67.0%
proportion of patients achieving a ≥4-point improvement in peak pruritus numerical rating scale ([1]; CsA-eligible, dupilumab q2w): 53.8%
proportion of patients achieving a ≥4-point improvement in peak pruritus numerical rating scale ([1]; CsA-eligible, dupilumab qw): 39.7%
proportion of patients achieving a 75% improvement in EASI ([1]; CsA-ineligible, dupilumab 300 mg q2w + TCS): 52.4%
proportion of patients achieving a 75% improvement in EASI ([1]; CsA-ineligible, dupilumab 300 mg qw + TCS): 50.0%
proportion of patients achieving a ≥4-point improvement in peak pruritus numerical rating scale ([1]; CsA-ineligible, dupilumab q2w): 42.9%
proportion of patients achieving a ≥4-point improvement in peak pruritus numerical rating scale ([1]; CsA-ineligible, dupilumab qw): 35.6%
Patients achieving EASI-75, n (%) ([1]; Subset A (inadequate response or intolerance to CsA), Dupilumab 300 mg Q2W ± TCS (N = 19)): (52.6) %
Patients achieving a peak pruritus NRS score improvement ≥4 points from baseline, n/N1 (%) ([1]; Subset A, Dupilumab 300 mg Q2W ± TCS): (47.4) %
Patients achieving EASI-75, n (%) ([1]; Subset A, Dupilumab 300 mg QW ± TCS (N = 43)): (48.8) %
Patients achieving a peak pruritus NRS score improvement ≥4 points from baseline, n/N1 (%) ([1]; Subset A, Dupilumab 300 mg QW ± TCS): (38.1) %
Patients achieving EASI-75, n (%) ([1]; Subset B (remaining study population), Dupilumab 300 mg Q2W ± TCS (N = 70)): (68.6) %
Patients achieving a peak pruritus NRS score improvement ≥4 points from baseline, n/N1 (%) ([1]; Subset B, Dupilumab 300 mg Q2W ± TCS): (52.2) %
Patients achieving EASI-75, n (%) ([1]; Subset B, Dupilumab 300 mg QW ± TCS (N = 227)): (67.0) %
Patients achieving a peak pruritus NRS score improvement ≥4 points from baseline, n/N1 (%) ([1]; Subset B, Dupilumab 300 mg QW ± TCS): (39.1) %
Patients achieving EASI 75, n (%) ([2]; CSA-eligible subset, Dupilumab 300 mg Q2W (N = 353)): (49.9) %
Patients achieving IGA 0-1, n (%) [2, 6]: (38.8) %
Patients achieving a ≥4-point improvement in peak pruritus NRS, n/N1 (%) [2, 6]: (39.7) %
Patients achieving EASI 75, n (%) ([2]; CSA-eligible subset, Dupilumab 300 mg QW (N = 366)): (54.1) %
Patients achieving IGA 0-1, n (%) [2, 7]: (39.1) %
Patients achieving a ≥4-point improvement in peak pruritus NRS, n/N1 (%) [2, 7]: (40.5) %
Patients achieving EASI 75, n (%) ([2]; CSA-ineligible subset, Dupilumab 300 mg Q2W (N = 104)): (40.4) %
Patients achieving IGA 0-1, n (%) [2, 8]: (30.8) %
Patients achieving a ≥4-point improvement in peak pruritus NRS, n/N1 (%) [2, 8]: (33.7) %
Patients achieving EASI 75, n (%) ([2]; CSA-ineligible subset, Dupilumab 300 mg QW (N = 96)): (35.4) %
Patients achieving IGA 0-1, n (%) [2, 9]: (28.1) %
Patients achieving a ≥4-point improvement in peak pruritus NRS, n/N1 (%) [2, 9]: (36.3) %
bacterial conjunctivitis rate ([2]; CsA-eligible, dupilumab q2w): 0.6%
conjunctivitis rate ([2]; CsA-eligible, dupilumab q2w): 5%
bacterial conjunctivitis rate ([2]; CsA-eligible, dupilumab qw): 1.1%
conjunctivitis rate ([2]; CsA-eligible, dupilumab qw): 3.3%
bacterial conjunctivitis rate ([2]; CsA-ineligible, dupilumab q2w): 3.8%
conjunctivitis rate ([2]; CsA-ineligible, dupilumab q2w): 1.9%
bacterial conjunctivitis rate ([2]; CsA-ineligible, dupilumab qw): 4.2%
conjunctivitis rate ([2]; CsA-ineligible, dupilumab qw): 4.2%
Patients achieving EASI 75, n (%) ([2]; Subset A (inadequate response or intolerance to CsA), Dupilumab 300 mg Q2W (N = 94)): (38.3) %
Patients achieving IGA 0-1, n (%) ([2]; Subset A, Dupilumab 300 mg Q2W): (29.8) %
Patients achieving a ≥4-point improvement in peak pruritus NRS, n/N1 (%) ([2]; Subset A, Dupilumab 300 mg Q2W): (33.7) %
Patients achieving EASI 75, n (%) ([2]; Subset A, Dupilumab 300 mg QW (N = 83)): (34.9) %
Patients achieving IGA 0-1, n (%) ([2]; Subset A, Dupilumab 300 mg QW): (27.7) %
Patients achieving a ≥4-point improvement in peak pruritus NRS, n/N1 (%) ([2]; Subset A, Dupilumab 300 mg QW): (34.1) %
Patients achieving EASI 75, n (%) ([2]; Subset B (remaining study population), Dupilumab 300 mg Q2W (N = 363)): (50.1) %
Patients achieving IGA 0-1, n (%) ([2]; Subset B, Dupilumab 300 mg Q2W): (38.8) %
Patients achieving a ≥4-point improvement in peak pruritus NRS, n/N1 (%) ([2]; Subset B, Dupilumab 300 mg Q2W): (39.5) %
Patients achieving EASI 75, n (%) ([2]; Subset B, Dupilumab 300 mg QW (N = 379)): (53.6) %
Patients achieving IGA 0-1, n (%) ([2]; Subset B, Dupilumab 300 mg QW): (38.8) %
Patients achieving a ≥4-point improvement in peak pruritus NRS, n/N1 (%) ([2]; Subset B, Dupilumab 300 mg QW): (40.9) %
pharmacokinetic profile [3]: consistent with adults
mean functional concentration of dupilumab in serum ([4]; 300 mg q2w (600 mg loading dose) with TCS): 80 mg/L
mean functional concentration of dupilumab in serum ([4]; 300 mg qw (600 mg loading dose) with TCS): 185 mg/L
effect of dupilumab on the PK of midazolam / activity of CYP3A (CYP3A): no meaningful effect; also recorded: does not have a meaningful effect
decrease in mean EASI (SD) score ([5]; Day 35): 59.3% (37.6)
decrease in mean EASI (SD) score ([5]; Day 50): 87.2% (13.4)
patients with at least one adverse event (AE) ([5]; in vivo): 3 patients
serious AE leading to treatment discontinuation (systemic inflammatory response syndrome) ([5]; in vivo): 1

From US10485844B2, “Methods for treating severe atopic dermatitis by administering an IL-4R inhibitor” (Regeneron Pharmaceuticals, Inc., priority 2016, dated 2019)
